Test results taken from patent US12215135B2, “PDL2 compounds” (IO BIOTECH APS, priority 2016, dated 2025).
“Also recorded” adds a separate entry of the source.

Assays:
[1] = tested on: PBMCs from patients with cancer and healthy donors; assay: IFN-γ ELISPOT assay on PBMCs; format: cell-based, human; settings: for CD4+ T cell responses against long peptides, IFN-γ ELISPOT assay: PBMCs from 11 patients with cancer and 11 healthy donors; for IFN-γ ELISPOT response, significance according to the DFR test / IFN-γ ELISPOT response, significance according to the DFR×2 rule: 5 selected PBMCs, patients with malignant melanoma; for specific T-cell responses, IFN-γ ELISPOT in vitro assay: PBMCs from HLA-A2+ patients with cancer, stimulated once in vitro with peptide; for immune responses, IFN-γ ELISPOT assay: PBMCs from healthy donors
Experimental: (§1) We collected blood samples from patients with melanoma, renal cell carcinoma, non-hodgkin lymphoma, and ovarian cancer and from healthy. Samples were collected a minimum of four weeks after the termination of any kind of anti-cancer therapy. Peripheral blood mononuclear cells (PBMCs) were isolated using Lymphoprep™ (Alere A S, cat. 1114547) separation, HLA-typed and frozen in FCS with 10% DMSO (Sigma-Aldrich, cat. D5879-100ML). Tumor Infiltrating lymphocytes (TIL) from lesions from two melanoma patients were expanded using high dose IL-2 (6000 units/ml). The protocol was approved by the Scientific Ethics Committee for The Capital Region of Denmark and conducted in accordance with the provisions of the Declaration of Helsinki. Before study entry, a written informed consent from the patients was obtained.
(§2) The IFN-γ and TNF-α ELISPOT technique was performed as described previously (3). We performed the assays according to the guidelines provided by the cancer immunotherapy immunoguiding program (CIP; cimt.eu/cimt/files/dl/cip guidelines.pdf). Unless stated otherwise, PBMCs were stimulated once in vitro with peptide prior to analysis to extend the sensitivity of the assay. To measure T-cell reactivity, nitrocellulose-bottomed 96-well plates (MultiScreen MSIPN4W; Millipore) were coated overnight at room temperature or two days at 4° C. with the relevant antibodies. The wells were washed and blocked with X-vivo medium for 2 h. The PBMCs were added at different cell concentrations in triplicate wells, with PD-L2 peptide or with control peptide, and incubated overnight. The following day, the wells were washed, and the relevant biotinylated secondary antibody (Mabtech) was added, followed by the avidin-enzyme conjugate (AP-Avidin; Calbiochem/Invitrogen Life Technologies); finally, we added the enzyme substrate, NBT/BCIP (Invitrogen Life Technologies) for visualization. The spots on the developed ELISPOT plates were analyzed on a CTL ImmunoSpot S6 Ultimate-V analyzer with Immunospot software, v5.1.
An ELISPOT response was defined, based on the guidelines and recommendations provided by CIP and Moodie et al (5). The non-parametric distribution-free resampling (DFR) and more conservative DFR×2 statistical test were used for a formal comparison between antigen-stimulated wells and negative-control wells. The ELISPOT assays were performed at least in triplicate.

[2] = tested on: PBMCs from patients with malignant melanoma; assay: TNF-α ELISPOT assay on PBMCs; format: cell-based, human; settings: 5 selected PBMCs
Experimental: as §1
The IFN-γ and TNF-α ELISPOT technique was performed as described previously (3). We performed the assays according to the guidelines provided by the cancer immunotherapy immunoguiding program (CIP; cimt.eu/cimt/files/dl/cip guidelines.pdf). Unless stated otherwise, PBMCs were stimulated once in vitro with peptide prior to analysis to extend the sensitivity of the assay. […] The spots on the developed ELISPOT plates were analyzed on a CTL ImmunoSpot S6 Ultimate-V analyzer with Immunospot software, v5.1. […]

[3] = tested on: TAP-deficient T2 cells pulsed with peptide; assay: 51Cr release assay, PD-L101-specific T-cell culture against peptide-pulsed T2 cells; format: cell-based, human; settings: different effector-to-target ratios
Experimental: (§3) Cytotoxicity Assay PD-L1-specific and PD-L2-specific T-cell-mediated cytotoxicity was measured with conventional 51chromium-release assays, as previously described (4). Target cells were TAP deficient T2 cells, pulsed with HIV-1 pol476-484 ([…], SEQ ID NO: 26), PD-L101 (PD-L1(15-23)), or PD-L205 (PD-L2(16-25)). siRNA-Mediated PD-L2 Silencing of DCs

[4] = tested on: PD-L2 T cell culture-A and -B (PD-L205-specific T cells); assay: Intracellular cytokine staining of PD-L2-specific T-cell cultures; format: cell-based, human
Experimental: (§4) PBMCs from a patient with melanoma were stimulated with irradiated (30 Gy) autologous DCs, which had been pulsed with PD-L205 (PD-L2(16-25)) peptide (PBL:DC ratio 10:1) and IL-7 (40 U/ml) were added (PeproTech, London, UK). The next day, IL-12 (20 U/ml) was added (PeproTech, London, UK). At weekly intervals, we performed three identical stimulations, with irradiated autologous DCs loaded with PDL205 (PD-L2(16-25)), and IL-12 (20 U/ml) added the next day. Then, at weekly intervals, we stimulated the culture three more times with irradiated autologous PBLs loaded with PDL205 (PD-L2(16-25)) (culture:PBL ratio 1:1), but the next day, we added IL-2 (120 U/ml; Proleukin, Novartis).
(§5) The culture was enriched for specific T cells, either by staining with an anti-CD137-PE antibody (BD-Biosciences) or by employing a TNF-α-enrichment and detection kit (according to the procedure by Miltenyi Biotec). Next, we performed magnetic cell isolation with a MACs microbead column (according to the procedure by Miltenyi Biotec). The sorted cells were rapidly expanded by incubating with 0.6 μg anti-CD3 antibody (eBioscience, clone OKT3) and a high dose of IL-2 (Proleukin, Novartis).
(§6) To detect cell subpopulations that produced cytokines, we stimulated a PD-L1-specific T-cell culture (previously described (1)) and a PD-L2-specific T-cell culture with 5 μg/ml of relevant or irrelevant peptide, and incubated the cells for 5 h at 37° C. with 5% CO2. After 1 h of incubation, we added GolgiPlug (BD), diluted at 1:200. After 4 h, cells were washed twice with PBS, stained with fluorochrome-conjugated antibodies specific for surface markers (CD3-APC-H7, CD4-PerCP/FITC, CD8-Pacific Blue/PerCP, and Horizon Fixable Viability Stain 510, all from BD). Cells were washed, fixed, and permeabilized with Fixation/Permeabilization and Permeabilization Buffer (eBioscience), according to the manufacturer's instructions. Cells were subsequently stained with fluorochrome-conjugated antibodies to visualize intracellular cytokines. The following antibody-fluorochrome combinations were used: IFNγ-PE-CY7/APC (eBioscience) and TNFα-APC/BV421 (eBioscience). Relevant isotype controls were used to enable correct compensation and confirm antibody specificity. Stained cells were analyzed with a BD FACSCanto II flow cytometer. Analysis was performed with BD FACSDiva Software.

[5] = tested on: TAP deficient T2 cells pulsed with peptide; assay: 51chromium-release cytotoxicity assay, PD-L2-specific T-cell cultures against peptide-pulsed T2 cells; format: cell-based, human; settings: cultures A and B
Experimental: as §4, §5, §3

[6] = tested on: PD-L2 T cell culture-A and -B (PD-L205-specific T cells); assay: ELISPOT assay on PD-L2-specific T-cell cultures; format: cell-based, human; settings: both PD-L2 specific cultures
Experimental: as §2, with “v5.1. […]” for “v5.1.”

[7] = tested on: Tumor infiltrating T-lymphocytes from two melanoma patients; assay: Intracellular cytokine staining of tumor infiltrating T-lymphocytes; format: cell-based, human; settings: TILs from two melanoma patients
Experimental: as §1
To detect cell subpopulations that produced cytokines, we stimulated a PD-L1-specific T-cell culture (previously described (1)) and a PD-L2-specific T-cell culture with 5 μg/ml of relevant or irrelevant peptide, and incubated the cells for 5 h at 37° C. with 5% CO2. After 1 h of incubation, we added GolgiPlug (BD), diluted at 1:200. […] Stained cells were analyzed with a BD FACSCanto II flow cytometer. […]

T cells = settings: previously described, refs (1), (2), (6); cited from earlier work
[8] = tested on: PD-L101-specific CD8+ T cells; assay: Intracellular cytokine staining of PD-L101-specific T-cell culture; format: cell-based, human
Experimental: as §6

SLELQLHQIAALFTVTVPKEL (Peptide fragment of human PDL2) [PD-L2long1]
CD4+ T cell responses against long peptides, IFN-γ ELISPOT assay [1]: frequent but moderate responses

QIAALFTVTV (Peptide fragment of human PDL2) [PD-L205, HLA-A2 restricted peptide fragment of human PD-L2]
TNF-α ELISPOT response, significance according to the DFR test [2]: statistically significant | IFN-γ ELISPOT response, significance according to the DFR test [1]: statistically significant | IFN-γ ELISPOT response, significance according to the DFR×2 rule [1]: statistically significant | specific T-cell responses, IFN-γ ELISPOT in vitro assay [1]: detected immune responses | ex vivo IFN-γ ELISPOT response ([1]; PBMCs from four donors, directly ex vivo without prior in vitro peptide stimulation, DFR rule): one of these donors showed an ex vivo IFN-γ response that was statistically significant | immune responses, IFN-γ ELISPOT assay [1]: strong immune responses | epitope dominance in eliciting immune responses ([1]; in general, across donors): dominant PD-L2 epitope; also recorded: strongest responses | lysis of peptide-pulsed T2 cells by PD-L101-specific T cells [3]: no cytotoxicity was observed | CD4+ T cells with TNF-α release in response to peptide ([4]; PD-L2 T cell culture-A): about 4.5% | CD8+ T cells with TNF-α release in response to peptide ([4]; PD-L2 T cell culture-A): ~1% | CD4+ T cells with TNF-α release in response to peptide ([4]; PD-L2 T cell culture-B): about 7% | CD8+ T cells with TNF-α release in response to peptide ([4]; PD-L2 T cell culture-B): ~2% | recognition and lysis of peptide-pulsed T2 cells by PD-L2 (PD-L205)-specific T-cell cultures [5]: could indeed recognize | recognition and lysis of peptide-pulsed T2 cells by PD-L2 (PD-L205)-specific T-cell cultures ([5]; listed as PDL205): recognized and lysed | IFN-γ and TNF-α T cell responses, ELISPOT [6]: T cell responses were observed

ILKEPVHGV (HIV-1 (HLA-A2 high affinity binding epitope)) [HIV-1 pol476-484]
lysis of peptide-pulsed T2 cells by PD-L101-specific T cells [3]: no cytotoxicity was observed | recognition and lysis of peptide-pulsed T2 cells by PD-L2 (PD-L205)-specific T-cell cultures [5]: did not recognize; also recorded: did not kill

MIFLLLMLSLELQLHQIAALFTVTV (Peptide fragment of human PDL2) [PD-L2long2]
CD4+ T cell responses against long peptides, IFN-γ ELISPOT assay [1]: frequent but moderate responses | IFN-γ responses, in vitro ELISPOT assay ([1]; PBMCs from four non-hodgkin lymphoma patients, DFR rule): All four patients showed responses that were statistically significant | IFN-γ CD4+ T-cell responses, intracellular cytokine staining [7]: elicited IFN-γ CD4+ T-cell responses

LLLMLSLEL (Peptide fragment of human PDL2) [PD-L201, HLA-A2 restricted peptide fragment of human PD-L2]
TNF-α ELISPOT response, significance according to the DFR test [2]: statistically significant | IFN-γ ELISPOT response, significance according to the DFR test [1]: statistically significant | IFN-γ ELISPOT response, significance according to the DFR×2 rule [1]: statistically significant | specific T-cell responses, IFN-γ ELISPOT in vitro assay [1]: detected immune responses | immune responses, IFN-γ ELISPOT assay [1]: weaker responses

LLNAFTVTV (PD-L101 (PDL1 peptide))
T cell response elicited by epitope (T cells): strong T cell response | spontaneous T-cell responses, IFN-γ ELISPOT test ([1]; PBMCs from patients with cancer that responded to PD-L205): did not detect any immune response | lysis of peptide-pulsed T2 cells by PD-L101-specific T cells [3]: only lysed T2-cells pulsed with PD-L101 | cytokine release (IFN-γ and TNF-α) from PD-L101-specific CD8+ T cells [8]: released cytokines only in response to PD-L101 | recognition and lysis of peptide-pulsed T2 cells by PD-L2 (PD-L205)-specific T-cell cultures [5]: did not kill

FIFIATVIAL (Peptide fragment of human PDL2) [PD-L215, HLA-A2 restricted peptide fragment of human PD-L2]
specific T-cell responses, IFN-γ ELISPOT in vitro assay [1]: detected immune responses
